Publication PMC7246923, “Inhibition of Xanthine Oxidase-Catalyzed Xanthine and 6-Mercaptopurine Oxidation by Flavonoid Aglycones and Some of Their Conjugates” (International Journal of Molecular Sciences, 2020)
Like-named read-outs stand apart in the source and are kept apart here.

Assays:
[1] = biological target: T1, Xanthine oxidase (XO; from bovine milk) (Bos taurus, UniProt P80457); test: XO-catalyzed xanthine oxidation (uric acid formation), HPLC; type: biochemical; conditions: for IC50 (xanthine)/IC50 (6MP): ratio of IC50 values of xanthine and 6MP assays; for IC50: substrate xanthine 5 μM, inhibitor 0–20 μM
T1 construct: Xanthine oxidase (XO; from bovine milk); purchased Sigma-Aldrich; host or cells: bovine milk
T1 sequence (P80457 whole entry): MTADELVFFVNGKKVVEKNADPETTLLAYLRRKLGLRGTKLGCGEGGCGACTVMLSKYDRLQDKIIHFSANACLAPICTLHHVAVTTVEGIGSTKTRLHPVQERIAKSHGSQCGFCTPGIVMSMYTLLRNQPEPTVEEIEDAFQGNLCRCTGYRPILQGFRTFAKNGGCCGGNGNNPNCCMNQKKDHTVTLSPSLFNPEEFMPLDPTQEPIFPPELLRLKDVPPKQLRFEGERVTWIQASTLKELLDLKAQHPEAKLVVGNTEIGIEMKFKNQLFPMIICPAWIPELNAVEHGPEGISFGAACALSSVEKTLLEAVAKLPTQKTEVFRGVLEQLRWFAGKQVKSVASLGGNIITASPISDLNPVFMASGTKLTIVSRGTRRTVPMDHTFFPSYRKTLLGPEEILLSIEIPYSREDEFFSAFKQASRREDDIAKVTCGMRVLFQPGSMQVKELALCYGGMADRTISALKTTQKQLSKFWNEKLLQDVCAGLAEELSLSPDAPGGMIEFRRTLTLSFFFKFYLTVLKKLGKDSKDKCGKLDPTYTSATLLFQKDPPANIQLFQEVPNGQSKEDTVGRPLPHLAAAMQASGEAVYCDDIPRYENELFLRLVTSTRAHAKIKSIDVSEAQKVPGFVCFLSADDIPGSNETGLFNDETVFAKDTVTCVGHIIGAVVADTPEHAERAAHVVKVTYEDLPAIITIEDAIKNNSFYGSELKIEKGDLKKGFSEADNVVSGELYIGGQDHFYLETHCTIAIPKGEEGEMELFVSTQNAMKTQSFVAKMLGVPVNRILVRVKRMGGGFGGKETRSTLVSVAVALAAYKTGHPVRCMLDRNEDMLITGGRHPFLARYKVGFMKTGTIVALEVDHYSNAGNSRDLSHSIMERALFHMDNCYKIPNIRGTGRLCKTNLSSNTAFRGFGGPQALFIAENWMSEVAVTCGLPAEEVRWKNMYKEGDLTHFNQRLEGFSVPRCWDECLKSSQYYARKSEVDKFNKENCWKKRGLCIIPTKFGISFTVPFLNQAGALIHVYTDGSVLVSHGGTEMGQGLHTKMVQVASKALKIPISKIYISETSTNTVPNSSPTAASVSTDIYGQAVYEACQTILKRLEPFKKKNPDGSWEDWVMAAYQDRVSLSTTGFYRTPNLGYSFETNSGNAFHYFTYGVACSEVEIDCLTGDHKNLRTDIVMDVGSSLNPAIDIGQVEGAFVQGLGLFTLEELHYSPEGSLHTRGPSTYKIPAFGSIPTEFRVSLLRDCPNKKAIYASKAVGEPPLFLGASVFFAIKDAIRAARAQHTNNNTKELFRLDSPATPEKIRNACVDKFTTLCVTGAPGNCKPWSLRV
Procedure: (§1) Chrysin-7-glucuronide (C7G) and 6-thiouric acid were purchased from Carbosynth (Berkshire, UK). Chrysin-7-sulfate (C7S) was synthetized as described. Stock solutions of flavonoids (each 2 mM) were prepared in dimethyl sulfoxide (DMSO) and stored at −20 °C.
(§2) To test the inhibitory effects of flavonoids and their metabolites on the XO-catalyzed oxidation of xanthine and 6MP, the previously reported methods were applied without modifications. […] In each experiment, solvent controls (DMSO) were used. Metabolite formation (% of control) was plotted vs. the inhibitor concentrations in decimal logarithmic scale. IC50 values were evaluated by sigmoidal fitting, employing GraphPad Prism 8 software (San Diego, CA, USA).
(§3) After the in vitro XO assays, xanthine and uric acid as well as 6MP and 6-thiouric acid were quantified by the HPLC-UV methods described in our previous report, without any modifications.

[2] = biological target: T1, Xanthine oxidase (XO; from bovine milk); test: XO-catalyzed 6-mercaptopurine oxidation (6-thiouric acid formation), HPLC; type: biochemical
Procedure: as §1, §2, §3

hyperuricaemic mice = conditions: cited from earlier work; for serum uric acid levels: orally administered; for serum uric acid concentrations: hyperuricemic mice, per os, API 50 and 100 mg/kg, KAE 50 and 100 mg/kg, LUT 100 mg/kg
normal mice = test system: normal mice; set-up: method as in PMID 17666819; conditions: per os; cited from earlier work
[3] = substrate 6MP 5 μM, inhibitor 0–20 μM, read-out: IC50(6MP)
[4] = hyperuricaemic mice, LUT 16–100 mg/kg, LUT-7-O-glucoside 50 and 100 mg/kg

COc1cc(-c2oc3cc(O)ccc3c(=O)c2O)ccc1O [Geraldol, 3’-O-methylfisetin]
IC50 (xanthine)/IC50 (6MP) [1]: 0.57 | IC50 [1]: 680 nM | IC50 [2, 3]: 1190 nM

O=c1cc(-c2ccc(O)cc2)oc2cc(O)cc(O)c12 [Apigenin, 5,7,4’-trihydroxyflavone]
serum uric acid levels (hyperuricaemic mice; hyperuricaemic mice, API 175–700 mg/kg): did not affect | serum uric acid concentrations (hyperuricaemic mice): significantly decreased | IC50 (xanthine)/IC50 (6MP) [1]: 3.00 | IC50 [1]: 270 nM | IC50 [2, 3]: 90 nM | IC50 ([2]; substrate 6MP 5 μM, read-out: IC50 values on 6MP oxidation): < 100 nM

O=c1cc(-c2ccc(O)c(O)c2)oc2cc(O)cc(O)c12 [Luteolin, 5,7,3′,4′-tetrahydroxyflavone]
uric acid levels (hyperuricaemic mice; hyperuricaemic mice, i.p. administration, 50 mg/kg): slight but significant decrease | serum uric acid levels (hyperuricaemic mice; [4]): did not affect | serum uric acid concentrations (hyperuricaemic mice): significantly decreased | IC50 (xanthine)/IC50 (6MP) [1]: 0.59 | IC50 [1]: 160 nM | IC50 [2, 3]: 270 nM

O=c1c(O)c(-c2ccc(O)c(O)c2)oc2cc(O)ccc12 [Fisetin, 3,7,3′,4′-tetrahydroxyflavone]
IC50 (xanthine)/IC50 (6MP) [1]: 0.78 | IC50 [1]: 860 nM | IC50 [2, 3]: 1100 nM

O=c1cc(-c2ccc(O)c(O)c2)oc2cc(O[C@@H]3O[C@H](CO)[C@@H](O)[C@H](O)[C@H]3O)cc(O)c12 [LUT-7-O-glucoside]
serum uric acid levels (hyperuricaemic mice; [4]): did not affect

O=c1cc(-c2ccccc2)oc2cc(OS(=O)(=O)O)cc(O)c12 [Chrysin-7-sulfate, chrysin-7-sulfate]
IC50 [1]: > 20000 nM | IC50 [2, 3]: 2230 nM

O=c1c(O)c(-c2ccc(O)cc2)oc2cc(O)cc(O)c12 [Kaempferol, 3,5,7,4′-tetrahydroxyflavone]
serum uric acid concentrations (hyperuricaemic mice): significantly decreased | uric acid levels (normal mice): decreased

O=c1cc(-c2ccccc2)oc2cc(O)cc(O)c12 [Chrysin, 5,7-dihydroxyflavone]
IC50 (xanthine)/IC50 (6MP) [1]: 3.18 | IC50 [2]: 220 nM

O=C(O)[C@H]1O[C@@H](Oc2cc(O)c3c(=O)cc(-c4ccccc4)oc3c2)[C@H](O)[C@@H](O)[C@@H]1O [Chrysin-7-glucuronide, chrysin-7-glucuronide]
IC50 [1]: > 20000 nM | IC50 [2, 3]: > 20000 nM
